From patent publication US5371284A, “Phenyl acetylenic acetals” (Schering Corporation, priority 1993, dated 1994)

System: LTC4-induced contractions of guinea pig lung parenchyma
Experiment: Inhibition of LTC4-induced contractions of guinea pig lung parenchyma strips
Design: species or system guinea pig (male Hartley)
Settings: test compound at 10)M (so in the source); 1×10^-8 M LTC4, compound added 5 min before challenge; footnote c = statistically significant (p = 0.05), Student's t test
Description: The anti-allergy method of this invention is shown by tests which measure a compound's inhibition of contractile responses of strips of lung parenchyma. Male Hartley guinea pigs (600-800 g body weight) were killed by a blow to the head and then exsanguinated. The lungs were inflated with 5 ml. of air through the trachea, the chest cavity opened, and the lungs perfused in situ through the pulmonary artery with Tyrode's solution. The lower lobe of each lung was excised and dissected into four strips (3×10 mm), each of which was suspended in a constant temperature (37° C.) organ bath containing 10 mL of Tyrode's solution and aerated with 95% O2 -5% CO2. Each lung strip was attached to a Harvard isometric muscle transducer and tension was recorded with a Harvard recording module. The initial tension was adjusted to 2 g and the tissues allowed to equilibrate until a steady baseline was reached. […] The peak contractile response to LTC4 was recorded and expressed as a percent of the maximum response (obtained with 1×10^-4 M histamine) of that lung strip. The effect of each test compound is expressed as percent inhibition of the contractile response calculated as follows: [formula]

CCCc1c(OCC(O)COc2ccc3c(=O)cc(C(=O)O)oc3c2CCC)ccc(C(C)=O)c1O (stereo not shown) [FPL 55712]
% Inhibition of LTC4-induced contractions of guinea pig lung parenchyma: 99%
